Laboratory results taken from US9517221B2, “(2R)-2-propyloctanoic acid for functional brain disease” (ONO PHARMACEUTICAL CO., LTD., priority 2006, dated 2016).
Where a name gives a salt, the structure may show the parent alone.

Assays:
[1] = tested on: olfactory bulbectomized rats; assay: Anxiolytic behavior on elevated plus maze of olfactory bulbectomized rats; type: in vivo, rat; details: dose 10 mg/kg once a day for 8 days; 5 minutes test 1 hour after 8 days administration
Description: SPF rats (Crlj: WI) were used in the test. The animal for olfactory bulbectomy was anesthetized with pentobarbital sodium (Nembutal R Injection, Dainippon Pharmaceutical, dose: 1 mL/kg (intraperitoneal administration)), and the head was fixed using a brain stereotaxic apparatus (ASI Instruments, Inc., NARISHIGE). After incising the head skin, holes are opened at right and left olfactory bulb regions of the skull using a dental drill (manufactured by […]), and the right and left olfactory bulbs were removed by sucking them using an aspirator connected to a tip-removed oral sonde, and the head skin was stitched thereafter. In this connection, in the case of the animals for sham-operation, anesthesia, brain fixation and head skin incision were carried out in the same manner as in the animals for olfactory bulbectomy, holes are opened at right and left olfactory bulb regions of the skull and the head skin was stitched without carrying out suction removal of the olfactory bulbs. The rats after olfactory bulbectomy were put into a series of five stainless steel cages, each of which was partitioned into two parts with an acrylic board for individual rearing space, and individually reared under a dark condition. The rats were subjected to the following tests of (2) and (3). • (a) Sham-operation group (12 animals); • (b) Vehicle control group (12 animals); • (c) 3 mg/kg administration group (12 animals) of (2R)-2-propyloctanoic acid; • (d) 10 mg/kg administration group (12 animals) of (2R)-2-propyloctanoic acid; • (e) 10 mg/kg administration group (12 animals) of Milnacipran hydrochloride. [Drug Administration] As shown below, drug solution or vehicle was administered once a day for 8 days, a total of 8 times, at a respective liquid dose of 5 mL/kg. • (a) Sham-operation group: vehicle (0.1% by volume Tween 80) aqueous solution; • (b) Vehicle control group: vehicle (0.1% by volume Tween 80) aqueous solution; • (c) 3 mg/kg administration group of (2R)-2-propyloctanoic acid: a drug solution in which (2R)-2-propyloctanoic acid was prepared to be 0.6 mg/mL with the vehicle; • (d) 10 mg/kg administration group of (2R)-2-propyloctanoic acid: a drug solution in which (2R)-2-propyloctanoic acid was prepared to be 2.0 mg/mL with the vehicle; • (e) 10 mg/kg administration group of milnacipran hydrochloride: a drug solution in which Milnacipran hydrochloride was prepared to be 2.3 mg/mL with the vehicle (Milnacipran itself is included in 2.0 mg/mL). (2) Examination of the Activity for Hyperemotional Reactivity <Evaluation Method> Evaluation of the anxiolytic behavior on an elevated plus maze was carried out once per animal for 5 minutes from 1 hour to 1 hour and 10 minutes after 8 days of the administration, in accordance with the following method. Each animal was softly put on a platform of elevated plus maze which is described later, toward one of the open arms. Thereafter, behavior of the animal was shot using a video camera (CCD-DC430, SONY) set up the elevated plus maze, and the images were analyzed by a video image behavior analyzing device (Etho Vision, manufactured by Noldus). Additionally, the images from the video camera were recorded and handled as reference data. In this connection, when the animal fell, it was regarded as staying on the open arm, and the animal was quickly returned to the place or the open arm where it was present just before the falling. The evaluation was carried out on the respective items shown by A to H (A: frequency of approach to the open arm, B: frequency of approach to the closed arm, C: frequency of approach to the platform, D: stayed time (second) on the open arm, E: stayed time (second) on the closed arm, F: stayed time (second) on the platform, G: defecation frequency on the open arm, platform and closed arm, and H: urination frequency on the open arm, platform and closed arm), by measuring A to F using the video image behavior analyzing device, and by measuring G and H after completion of the measurement. […]

[2] = tested on: olfactory bulbectomized rats; assay: Hyperemotional reactivity (hyperemotional score) of olfactory bulbectomized rats; type: in vivo, rat; design: key to Hyperemotional score (mean ± S. E.), One day administration, Before administration / Hyperemotional score (mean ± S. E.), One day administration, After administration / Hyperemotional score (mean ± S. E.), Seven days administration, Before administration / Hyperemotional score (mean ± S. E.), Seven days administration, After administration: irritability score per Gomita et al. (1983) criteria
Description: SPF rats (Crlj: WI) were used in the test. The animal for olfactory bulbectomy was anesthetized with pentobarbital sodium (Nembutal R Injection, Dainippon Pharmaceutical, dose: 1 mL/kg (intraperitoneal administration)), and the head was fixed using a brain stereotaxic apparatus (ASI Instruments, Inc., NARISHIGE). After incising the head skin, holes are opened at right and left olfactory bulb regions of the skull using a dental drill (manufactured by MINITOR), and the right and left olfactory bulbs were removed by sucking them using an aspirator connected to a tip-removed oral sonde, and the head skin was stitched thereafter. In this connection, in the case of the animals for sham-operation, anesthesia, brain fixation and head skin incision were carried out in the same manner as in the animals for olfactory bulbectomy, holes are opened at right and left olfactory bulb regions of the skull and the head skin was stitched without carrying out suction removal of the olfactory bulbs. The rats after olfactory bulbectomy were put into a series of five stainless steel cages, each of which was partitioned into two parts with an acrylic board for individual rearing space, and individually reared under a dark condition. The rats were subjected to the following tests of (2) and (3).
• (a) Sham-operation group (12 animals); • (b) Vehicle control group (12 animals); • (c) 3 mg/kg administration group (12 animals) of (2R)-2-propyloctanoic acid; • (d) 10 mg/kg administration group (12 animals) of (2R)-2-propyloctanoic acid; • (e) 10 mg/kg administration group (12 animals) of Milnacipran hydrochloride. [Drug Administration]
As shown below, drug solution or vehicle was administered once a day for 8 days, a total of 8 times, at a respective liquid dose of 5 mL/kg. • (a) Sham-operation group: vehicle (0.1% by volume Tween 80) aqueous solution; • (b) Vehicle control group: vehicle (0.1% by volume Tween 80) aqueous solution; • (c) 3 mg/kg administration group of (2R)-2-propyloctanoic acid: a drug solution in which (2R)-2-propyloctanoic acid was prepared to be 0.6 mg/mL with the vehicle; • (d) 10 mg/kg administration group of (2R)-2-propyloctanoic acid: a drug solution in which (2R)-2-propyloctanoic acid was prepared to be 2.0 mg/mL with the vehicle; • (e) 10 mg/kg administration group of milnacipran hydrochloride: a drug solution in which Milnacipran hydrochloride was prepared to be 2.3 mg/mL with the vehicle (Milnacipran itself is included in 2.0 mg/mL). (2) Examination of the Activity for Hyperemotional Reactivity <Evaluation Method>
Evaluation of the hyperemotional reactivity was carried out (1) before the grouping, (2) from 1 hour to 1 hour and 10 minutes after administration of the 1 day drug administration, (3) before administration of the 7 days administration and (4) from 1 hour to 1 hour and 10 minutes after the administration (a total of 4 times), by scoring the degree of irritability once a rat in accordance with the following evaluation criteria of hyperemotional reactivity (hyperemotional score: prepared based on the method of Gomita et al. (Folia Pharmacologica Japonica, 82, 267, 1983). Additionally, all of the conditions of the evaluation were shot and recorded using a video camera (SSC-DC430, SONY) and handled as reference data.

For CCN(CC)C(=O)C1(c2ccccc2)CC1CN (stereo not drawn) [Milnacipran hydrochloride, reference compound], the “Time (seconds) stayed on closed arm (mean ± S. E.)” value [1] was 196.0 ± 19.8 s, the “Time (seconds) stayed on open arm (mean ± S. E.)” value [1] was 72.7 ± 18.3 s and the “Hyperemotional score (mean ± S. E.), Seven days administration, After administration” value ([2]; dose 10 mg/kg once a day, 1 hour to 1 hour 10 minutes after 7 days administration) was 7.6 ± 0.8. For the same molecule, the “Hyperemotional score (mean ± S. E.), Seven days administration, Before administration” value ([2]; dose 10 mg/kg once a day, before administration of the 7 days administration) was 10.2 ± 1.1, the “Hyperemotional score (mean ± S. E.), One day administration, After administration” value ([2]; dose 10 mg/kg, 1 hour to 1 hour 10 minutes after 1 day administration) was 14.3 ± 1.0 and the “Hyperemotional score (mean ± S. E.), One day administration, Before administration” value ([2]; dose 10 mg/kg, baseline before grouping, 12 animals) was 20.0 ± 0.0.
